# Publication PMC7006784, “The combination of salvianolic acid A with latamoxef completely protects mice against lethal pneumonia caused by methicillin-resistant Staphylococcus aureus” (Emerging Microbes & Infections, 2020)
# pKd: −log10 of the molar value. Marks after values point to notes of the source that are not given here.
# Legend:
# S. aureus USA300 = experiment: Pneumonia model, survival; assay type: in vivo, C57BL/6J mice; conditions: mice, 2 × 10^9 CFU i.n.; s.c. 100 mg/kg Sal A and/or 75 mg/kg latamoxef every 12 h, 96 h; PBS control 10%
# Procedure: The animal experiments were performed using 6- to 8-week-old female C57BL/6J mice obtained from the Experimental Animal Center of Jilin University and conducted according to the guidelines of the Animal Care and Use Committee of Jilin University. The mouse S. aureus pneumonia model was generated as described previously. Briefly, the mice were anaesthetized with ether and inoculated with 30 μl bacterial resuspension via the left nare. The mice were then held upright to allow the bacteria to be inhaled into the lungs. For the survival assessment, groups of 10 mice were challenged with 2 × 10^9 CFU S. aureus. One hour after intranasal inoculation, the mice were subcutaneously injected with 100 mg/kg of Sal A, 75 mg/kg of latamoxef or 100 mg/kg of Sal A plus 75 mg/kg of latamoxef at 12 h intervals, and survival was assessed for 96 h. For the bacterial load, histopathological, and bronchoalveolar lavage fluid (BALF) experiments, mice were inoculated with 1 × 10^9 CFU S. aureus. The mice were then given a subcutaneous injection of 100 mg/kg Sal A, 75 mg/kg latamoxef or a combination of 100 mg/kg Sal A and 75 mg/kg every 12 h. After 24 h, the left lung of each anaesthetized mouse was aseptically excised and homogenized, and the CFU was determined by serial dilutions. […]
# [1] = test system: S. aureus protein A (SpA); experiment: Flow cytometry of FITC-IgG-stained S. aureus (SpA anchoring); assay type: cell-based; conditions: untreated WT 108.58
# Procedure: To quantify the effect of the Sal A on the anchoring of SpA, the FITC-IgG-stained S. aureus was measured by flow cytometry. S. aureus strains were grown overnight and then were diluted 1:100 in BHI broth with or without Sal A and grown until the OD600 reached 1.0. Then, bacteria were harvested by centrifugation at 2,500 × g for 10 min. The collected pellets were washed once with PBS and were incubated in PBS solution containing 0.2% BSA (wt/vol) for 10 min. Afterward, bacteria were washed thrice and then suspended in PBS containing FITC-labelled rabbit anti-goat-IgG at a dilution of 1:50 and incubated at 37°C in the dark for 60 min. After a thorough washing, bacteria were fixed with formaldehyde (2%, vol/vol) for 10 min at room temperature. Fluorescence signal was detected on a FACSCanto flow cytometer (Becton Dickinson, USA) and analyzed using FACSDiva software.
# SrtA = molecular target: T1, SrtA (Staphylococcus aureus, UniProt Q2FV99); experiment: Biolayer interferometry assay; assay type: binding, S. aureus
# T1 construct: The gene encoding SrtA (lacking the N-terminal transmembrane domain (N1–59)); made in house
# T1 sequence (Q2FV99 60-206): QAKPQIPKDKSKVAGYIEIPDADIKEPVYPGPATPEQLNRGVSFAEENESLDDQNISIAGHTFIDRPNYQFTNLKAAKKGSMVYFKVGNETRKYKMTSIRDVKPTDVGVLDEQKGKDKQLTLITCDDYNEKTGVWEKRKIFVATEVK
# Procedure: The kinetics of the binding of Sal A to SrtA were determined by a biolayer interferometry (BLI) assay using the Octet RED96 system (ForteBio, Inc., Menlo Park, CA) as described previously. Ni-NTA sensors were used to bind the His-tag SrtA protein. The assay buffer used was PBS containing 0.1% bovine serum albumin and 0.02% Tween-20, pH 6.5. Before the assay was performed, the Ni-NTA sensors were pre-wetted in assay buffer for 10 min, and then the Ni-NTA sensors were flushed with buffer for 60 s to generate the baseline. SrtA was immobilized on the surface of the sensor tip by incubating it in […] protein solution for 3600 s. The excess protein was removed by washing the sensor with buffer for 300 s. Subsequently, the sensor was exposed to a cycle of 60 s for the baseline step, 200 s for the association step and 100 s for the dissociation step in different concentrations of Sal A solution (250, 125, 62.5, 31.25 and 15.625 μM). The binding of the sensor to protein without the loading of Sal A served as a control. The data were processed using the double reference subtraction method in Forte Bio analysis software (v6.4).
# A104L-SrtA = test system: T2, A104L-SrtA; experiment: Fluorescence quenching assay, A104L-SrtA; assay type: binding, S. aureus; conditions: fluorescence spectroscopy quenching
# T2 construct: The gene encoding SrtA (lacking the N-terminal transmembrane domain (N1–59)); 6xHis (N); made in house
# Procedure: (§1) The fluorescence quenching assay was performed as previously described. Briefly, purified SrtA and mutant protein were diluted to 500 ng/ml with PBS. A total of 2.5 ml diluted protein solution was mixed with Sal A at different concentrations ranging from 0 to 4.5 μg. After incubation for 10 min, the fluorescence spectra of the mixed solutions were measured using a fluorescence spectrophotometer (RF5301, Japan). For the fluorescence measurement, the excitation and emission slits were set at 5.0 nm, the excitation wavelength was set at 280 nm, and fluorescence emission spectra in the range of 290–500 nm were scanned; the fluorescence intensity at 340 nm was recorded. All assays were performed in triplicate.
# [2] = test system: S. aureus protein A (SpA); experiment: SpA-related fluorescence analysis (confocal microscopy); assay type: cell-based; conditions: 256 μg/ml, FITC-labelled IgG
# Procedure: An overnight culture of S. aureus was diluted 1:100 in BHI broth with or without Sal A and grown until the OD600 reached 1.0. After centrifugation at 2,500 × g for 10 min, the bacterial pellets were fixed with 4% formaldehyde solution for 30 min. After washing three times with PBS, 5% BSA was added for blocking, and the bacteria were incubated for 20 min. Then, the bacteria were rinsed with PBS and resuspended in PBS containing FITC-labelled rabbit anti-goat-IgG (Sigma) at a dilution of 1:50 and incubated at 37°C for 3 h. After washing three times with PBS, the bacteria were placed onto poly-lysine-coated glass slides, and the SpA on the cell surface was visualized by confocal microscopy (Zeiss, LSM 880).
# [3] = test system: adhesion of S. aureus to fibrinogen; experiment: Fibrinogen binding assay; assay type: cell-based; conditions: bovine fibrinogen coated plate, crystal violet
# Procedure: Overnight cultures of S. aureus were subcultured into fresh medium with or without Sal A and then grown until the OD600 reached 0.5. Then, 100 μl of the bacterial culture was transferred into each well of a polystyrene 96-well plate coated with 20 μg/ml bovine fibrinogen and incubated for 2 h at 37°C. The cell suspension was discarded, and the wells were rinsed twice with PBS. Then, 25% formaldehyde was added and incubated for 30 min, and the plate was washed three times and stained with crystal violet dye (12.5 g/l). The binding of S. aureus to fibrinogen was quantitated as described previously. The data are presented as the mean ± SEM from three separate experiments.
# A92L-SrtA = test system: T3, A92L-SrtA; experiment: Fluorescence quenching assay, A92L-SrtA; assay type: binding, S. aureus; conditions: fluorescence spectroscopy quenching
# T3 construct: The gene encoding SrtA (lacking the N-terminal transmembrane domain (N1–59)); 6xHis (N); made in house
# Procedure: as §1
# S. aureus = experiment: Anti-S. aureus activity (MIC by broth microdilution, growth curve); assay type: cell-based
# Procedure: The minimum inhibitory concentration (MIC) of Sal A was determined by broth microdilution according to the NCCLS guidelines. Briefly, overnight cultures of S. aureus were diluted 1:100 with fresh Brain Heart Infusion (BHI) medium supplemented with or without 256 μg/ml Sal A and grown at 37°C with shaking. Absorbance readings were obtained at OD600 at different time intervals.
compound,measurement,setting,value
"O=C(/C=C/c1ccc(O)c(O)c1/C=C/c1ccc(O)c(O)c1)O[C@H](Cc1ccc(O)c(O)c1)C(=O)O [Sal A, (2R)-3-(3,4-Dihydroxyphenyl)-2-[(E)-3-[2-[(E)-2-(3,4-dihydroxyphenyl)ethenyl]-3,4-dihydroxyphenyl]prop-2-enoyl]oxypropanoic acid]",survival rate,S. aureus USA300,80%
same,mean value of fluorescence yield (Marker: All),[1],13.64
same,pKd,SrtA,4.67
same,koff,SrtA,0.0138 s⁻¹
same,kon,SrtA,582 M⁻¹ s⁻¹
same,KA,A104L-SrtA,2.62 (1 × 10^4) l/mol
same,level of green fluorescence (SpA on surface) compared with the WT group,[2],considerably reduced
same,adhesion of S. aureus to fibrinogen,[3],inhibited the adhesion of S. aureus to fibrinogen in a dose-dependent manner
same,KA,A92L-SrtA,3.78 (1 × 10^4) l/mol
same,growth of S. aureus,"S. aureus; 40-fold the IC50 (up to 200 μM), growth curve with 256 μg/ml",did not inhibit the growth
same,MIC,"S. aureus; Staphylococcus aureus, broth microdilution",> 1020 µg/mL
